Data set [1] deals with T1, M2 muscarinic receptor subtype (rat heart) (Rattus norvegicus, UniProt P10980).
T1 construct: Submandibular glands and heart were isolated and placed in ice cold homogenising buffer; from tissue; host or cells: rat heart membranes
T1 sequence (P10980 1-466): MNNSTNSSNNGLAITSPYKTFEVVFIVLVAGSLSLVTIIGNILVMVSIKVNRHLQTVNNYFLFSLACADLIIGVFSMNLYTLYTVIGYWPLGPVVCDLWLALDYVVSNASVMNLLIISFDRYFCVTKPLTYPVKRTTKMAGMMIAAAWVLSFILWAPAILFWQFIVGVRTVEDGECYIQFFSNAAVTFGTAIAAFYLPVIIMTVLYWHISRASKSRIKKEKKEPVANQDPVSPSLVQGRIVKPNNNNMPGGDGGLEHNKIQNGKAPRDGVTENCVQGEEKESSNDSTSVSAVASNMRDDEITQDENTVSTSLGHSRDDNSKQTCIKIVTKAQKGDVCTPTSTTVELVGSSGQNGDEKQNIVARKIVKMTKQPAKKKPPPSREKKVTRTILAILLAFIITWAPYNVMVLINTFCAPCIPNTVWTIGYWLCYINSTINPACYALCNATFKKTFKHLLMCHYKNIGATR
Description: Radioligand binding assay, [3H]-N-methylscopolamine, M2. Conditions: Receptor Binding Assay M2 pKi. The protocol: (§1) The membrane preparation was done with the following modifications: a low spin step of 500 g for 10 minutes at 4° C. was used; the buffer was 20 mM HEPES, 10 mM EDTA, at pH 7.4; the high speed spin was done at 40,000 g and the homogenate was passed through a filter gauge before any spinning.
(§2) Membrane preparation: Submandibular glands and heart were isolated and placed in ice cold homogenising buffer (HEPES 20 mM, 10 mM EDTA, pH 7.4) immediately after sacrifice. The tissues were homogenised in 10 volumes of homogenising buffer and the homogenate was filtered through two layers of wet gauze and filtrate was centrifuged at 500 g for 10 min. The supernatant was subsequently centrifuged at 40,000 g for 20 min. The pellet thus obtained was resuspended in same volume of assay buffer (HEPES 20 mM, EDTA 5 mM, pH 7.4) and were stored at −700C until the time of assay.
(§3) Ligand binding assay: The compounds were dissolved and diluted in DMSO. The membrane homogenates (150-250 μg protein) were incubated in 250 μl of assay buffer (HEPES 20 mM, pH 7.4) at 24-25° C. for 3 h. […] The incubation was terminated by vacuum filtration over GF/B fiber filters (Wallac). The filters were then washed with ice cold 50 mM Tris HCl buffer (pH 7.4). The filter mats were dried and bound radioactivity retained on filters was counted. The IC50 and Kd were estimated by using the non-linear curve fitting program using G Pad Prism software.

For data set [2], the target named is T2, M3 muscarinic receptor subtype (rat submandibular gland) (Rattus norvegicus, UniProt P08483).
T2 construct: Submandibular glands and heart were isolated and placed in ice cold homogenising buffer; from tissue; host or cells: rat submandibular gland membranes
Description: Radioligand binding assay, [3H]-N-methylscopolamine, M3. Conditions: Receptor Binding Assay M3 Pki. The protocol:
as §1, §2, §3

The structures appear in SMILES notation.

The term melting point denotes the temperature, or range, at which the solid turns liquid. As a reminder, the Ki is the equilibrium dissociation constant of an inhibitor or competing ligand from its target. Higher therefore signals lower affinity.

T2 sequence (P08483 whole entry): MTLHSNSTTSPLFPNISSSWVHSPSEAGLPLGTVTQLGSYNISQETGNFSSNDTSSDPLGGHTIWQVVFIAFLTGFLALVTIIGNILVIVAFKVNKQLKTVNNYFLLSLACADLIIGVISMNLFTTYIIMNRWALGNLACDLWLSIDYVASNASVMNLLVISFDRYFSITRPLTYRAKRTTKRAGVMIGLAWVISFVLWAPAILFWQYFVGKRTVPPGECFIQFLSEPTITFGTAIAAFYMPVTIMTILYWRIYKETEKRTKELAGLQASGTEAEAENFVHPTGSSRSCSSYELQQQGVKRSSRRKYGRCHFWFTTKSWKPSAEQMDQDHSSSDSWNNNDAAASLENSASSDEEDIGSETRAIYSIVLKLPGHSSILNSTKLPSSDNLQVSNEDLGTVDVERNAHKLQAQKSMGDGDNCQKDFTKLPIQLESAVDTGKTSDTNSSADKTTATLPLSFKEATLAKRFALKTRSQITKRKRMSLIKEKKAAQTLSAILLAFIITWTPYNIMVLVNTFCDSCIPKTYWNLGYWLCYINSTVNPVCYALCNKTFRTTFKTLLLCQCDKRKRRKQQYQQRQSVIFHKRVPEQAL

For the compound `O=C(NC[C@H]1[C@@H]2CNC[C@@H]21)C(O)(c1ccccc1)C1CCCC1` (mixture of isomers) [Compound 1, (2R,2S) (1α,5α,6α)-N-[3-azabicyclo[3.1.0]hexyl-6-(aminomethyl)-yl]-2-hydroxy-2-cyclopentyl-2-phenyl acetamide], the melting point fell in the range of 149 to 151 °C. This compound also showed a Ki in data set [1] of 12 nM. The compound further had a Ki in data set [2] of 0.525 nM.

The values are drawn from US7544708B2, “Azabicyclo derivatives as muscarinic receptor antagonists” (Ranbaxy Laboratories Limited, priority 2002, dated 2009).
